Results reported in patent publication US20080194522A1, “Development of Fluorogenic Substrates For Monoamine Oxidases (Mao-A and Mao-B)” (priority 2004, published 2008).

Experiments:
[1] = Photophysical characterization (absorbance, extinction coefficient, emission, quantum yield); format: physicochemical
Description: Extinction coefficients were the average of three independent determinations of three different readings from the lowest energy transition at three concentrations. Quantum yields are the average of three determinations of both quantum yield standard 9,10-diphenylanthracene and the synthesized coumarines at 340 nm unless otherwise indicated.
All spectra were recorded in 100 mM sodium phosphate (pH 7.4) unless otherwise indicated. Recorded λmax is that of the longest wavelength transition. Extinction coefficients were reported as the average of at least three independent preparations of the probes. Fluorescence measurements were taken on a Jobin Yvon Fluorolog fluorescence spectrofluorometer (slits 3, HV 750) in 100 mM sodium phosphate pH 7.4 buffer unless otherwise indicated. Quantum yields were measured relative to 9,10 diphenylanthracene in EtOH.4 Reported quantum efficiencies are the average of at least three independent preparations of the probes.
The extinction coefficient ε relates the absorbance of a compound to its concentration as expressed in Beer's law (A=εbc where A is absorbance, b is pathlength, and c is concentration). Extinction coefficients were the average of three independent determinations of three different readings of absorbance from the lowest energy transition at three concentrations. The quantum yield of fluorescence is the fraction of absorbed photons that lead to fluorescence; the number of photons fluoresced divided by the number of photons absorbed. To obtain the quantum yields of the synthesized coumarines their efficiency was compared to standard 9,10-diphenylanthracene at 340 nm in three different determinations. The effect of different solvents on the fluorescence of the compounds was also tested. The compounds were dissolved in methanol, chloroform and toluene and their emissions spectrum was taken.

Chemical stability = conditions: in words
[2] = Solubility in aqueous solution; format: physicochemical; conditions: in words
[3] = Fluorescence switch / apparent fluorescence increase, product versus substrate; format: physicochemical
Description: Apparent fluorescence increase was calculated by comparing the slopes (arbitrary fluorescence units/μM) of standard curves of chemically synthesized product and substrate concentration versus fluorescence intensity. Calculation of the apparent fluorescence increase is shown below for probe 9, which has a 21000% apparent fluorescence increase in emission intensity at λem=524 nm. The constants fP and fS were calculated from the slope of a line of fluorescence intensity versus concentration of chemically synthesized product indole 10 and substrate 9, respectively. These slopes were obtained from calibration curves of at least five concentrations of 9 and 10 in phosphate buffer (pH 7.4). The preparations of the compounds in mitochondrial assay buffer have negligible effects on fS and fP.

MAO-A = target: T1, MAO-A (Homo sapiens, UniProt P21397); assay: Monoamine oxidase A substrate assay, human placenta mitochondria, fluorescence detection of indole product
T1 sequence (P21397 1-527): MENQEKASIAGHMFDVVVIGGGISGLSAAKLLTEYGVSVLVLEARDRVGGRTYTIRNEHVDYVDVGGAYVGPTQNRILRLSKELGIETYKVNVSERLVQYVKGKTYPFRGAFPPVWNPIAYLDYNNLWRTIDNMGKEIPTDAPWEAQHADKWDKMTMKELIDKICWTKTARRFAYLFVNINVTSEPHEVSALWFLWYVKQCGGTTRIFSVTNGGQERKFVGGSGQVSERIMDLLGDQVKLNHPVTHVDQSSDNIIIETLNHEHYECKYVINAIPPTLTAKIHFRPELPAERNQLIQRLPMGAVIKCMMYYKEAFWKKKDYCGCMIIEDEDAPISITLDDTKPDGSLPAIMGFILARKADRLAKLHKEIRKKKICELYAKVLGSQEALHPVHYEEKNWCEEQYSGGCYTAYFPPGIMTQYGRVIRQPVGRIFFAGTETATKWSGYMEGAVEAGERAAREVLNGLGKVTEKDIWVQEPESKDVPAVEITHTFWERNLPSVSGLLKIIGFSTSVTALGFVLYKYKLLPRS

MAO-B = target: T2, MAO-B (Bos taurus, UniProt P56560); assay: Monoamine oxidase B substrate assay, beef liver mitochondria, fluorescence detection of indole product
T2 sequence (P56560 1-520): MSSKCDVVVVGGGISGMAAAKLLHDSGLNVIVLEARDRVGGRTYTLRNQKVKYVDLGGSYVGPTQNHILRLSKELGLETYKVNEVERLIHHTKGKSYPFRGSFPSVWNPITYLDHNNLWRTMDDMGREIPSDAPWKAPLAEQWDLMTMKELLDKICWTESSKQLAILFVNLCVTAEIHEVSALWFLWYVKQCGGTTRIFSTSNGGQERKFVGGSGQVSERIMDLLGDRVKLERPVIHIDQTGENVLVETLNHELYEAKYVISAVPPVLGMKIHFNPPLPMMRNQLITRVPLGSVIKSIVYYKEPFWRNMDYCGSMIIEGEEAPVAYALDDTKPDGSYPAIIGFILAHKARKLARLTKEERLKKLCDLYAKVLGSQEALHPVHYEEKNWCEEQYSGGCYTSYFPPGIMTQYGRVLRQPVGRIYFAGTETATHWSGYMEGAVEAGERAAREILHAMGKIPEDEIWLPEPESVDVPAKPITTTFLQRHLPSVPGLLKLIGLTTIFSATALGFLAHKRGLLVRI

[4] = 24-hour incubation, room temperature, pH 7.4

In the case of `CCN(CC)c1ccc2c(C)c(-c3ccc4[nH]ccc4c3)c(=O)oc2c1` [Probe 17, 7-Diethylamino-3-(1H-indol-5-yl)-4-methyl-chromen-2-one], the emission wavelength [1] is reported as 475 nm, the “fluorescence, in words” value ([1]; aqueous / phosphate buffer) is reported as “highly fluorescent” and the chemical stability (Chemical stability) is reported as “chemically and photo-physically stable”. The “solubility in aqueous solution” value [2] was “reasonably soluble” and the “fluorescence emission intensity increase, indole/pyrrolocoumarin versus aniline/aminocoumarin” value [3] was 12 fold.
With `NCCc1cc2oc(=O)ccc2cc1N` [III] the Φ ([1]; Table 2, in water, relative to 9,10-diphenyl anthracene (excited at 340 nm)) was 0.0017, the “ε (M^−1cm^−1)” value ([1]; Table 2 diamines, in water) was 2,000 ± 100 M^−1cm^−1 and the “λmax (nm)” value ([1]; Table 2 diamines, in water) was 352 nm. The “enzyme-catalyzed conversion of diamine to indole” value (MAO-A; [4]) was “significant conversion”, the “kcx” value (MAO-A; Table 6, Monoamine Oxidase A) was 0.475 min⁻¹ and the “substrate quality for MAO-A” value (MAO-A; in words) was “good substrate for MAO-A”. The “enzyme-catalyzed conversion of diamine to indole” value (MAO-B; [4]) was “significant conversion”, the “kcx” value (MAO-B; Table 6, Monoamine Oxidase B) was 20.62 min⁻¹ and the “substrate quality for MAO-B” value (MAO-B; in words) was “good substrate for MAO-B”.
